Results from patent US12383526B2, “Optimized sigma-1 agonist method of responder selection and treatment” (ANAVEX LIFE SCIENCES CORP., priority 2018, dated 2025).

Experiments:
[1] = Phase 1 study; 1-60 mg range; male healthy subjects; cited from earlier work
[2] = Plasma concentrations of ANAVEX2-73 and its metabolite ANAVEX19-144 in the 57-week study; type: in vivo, human; settings: for Mean Concentration ANAVEX2-73, Max / Mean Concentration ANAVEX2-73, Mean / Mean Concentration ANAVEX2-73, Min: plasma
Experimental: A pharmacokinetics analysis was performed during Part A only. Blood samples were drawn at 12 and 11 time points after the first oral or IV administration during the first and second periods of Part A, respectively. Pharmacokinetic parameters included in the analysis consisted of maximum plasma drug concentration (C max), time to maximum plasma concentration during a dosing interval (t max), area under the curve from the time of dosing to the last measurable concentration (AUC0-t), mean elimination half-life (t ½), and the total body clearance for extravascular administration divided by the fraction of dose absorbed (CL/F).
Steady-state plasma levels of ANAVEX2-73 and its metabolite ANAVEX19-144 were assessed in Part B through blood samples collection at pre-specified time points (Weeks 12, 26, 36 and 48). Mean concentration values in ng/mL of each patient were then averaged. Table 14 illustrates mean plasma concentrations of ANAVEX2-73 and its metabolite ANAVEX19-144 during the 57-week study study.

In the case of `CN(C)CC1CCOC1(c1ccccc1)c1ccccc1.Cl` (centres unmarked) [ANAVEX2-73, tetrahydro-N,N-dimethyl-2,2-diphenyl-3-furanmethanamine hydrochloride], the “relationship between dose and plasma concentration” value [1] is listed as “linear”, the “plasma concentration versus dose in the present study” value ([2]; 57-week study Part A, FIG. 2B) is listed as “dose-dependent increase” and the “Mean Concentration ANAVEX2-73, Max” value ([2]; Part A1 (Day 1-2)) is listed as 15.9 ng/mL. For the same compound, the “Mean Concentration ANAVEX2-73, Mean” value ([2]; Part A1 (Day 1-2)) was 5.25 ng/mL, the “Mean Concentration ANAVEX2-73, Min” value ([2]; Part A1 (Day 1-2: within 2 days of first oral dose), N = 32 patients) was 0.84 ng/mL and the “Mean Concentration ANAVEX2-73, Max” value ([2]; Part A2 (Day 3-12)) was 8.44 ng/mL. For the same compound, the “Mean Concentration ANAVEX2-73, Mean” value ([2]; Part A2 (Day 3-12)) was 2.11 ng/mL, the “Mean Concentration ANAVEX2-73, Min” value ([2]; Part A2 (Day 3-12)) was 0.03 ng/mL and the “Mean Concentration ANAVEX2-73, Max” value ([2]; Part B (Week 5 to Week 57)) was 11.58 ng/mL. The “Mean Concentration ANAVEX2-73, Mean” value ([2]; Part B (Week 5 to Week 57)) was 3.8 ng/mL and the “Mean Concentration ANAVEX2-73, Min” value ([2]; Part B (Week 5 to Week 57)) was 0 ng/mL.
